Results: the NIST ThermoML archive (doi:10.1016/j.jct.2013.03.020)
Values joined by “and” are separate entries in the source; they are usually repeats but may differ in a detail not shown here. Equal entries are not always repeated. ± gives the expanded uncertainty stated by the source.

Details: Liquid, Closed cell (Static) method

O [water]
Details | vapor or sublimation pressure
273.15 K | 0.5798 ± 0.013 kPa
283.15 K | 1.183 ± 0.026 kPa
293.15 K | 2.277 ± 0.047 kPa
303.15 K | 4.165 ± 0.085 kPa
313.15 K | 7.284 ± 0.15 kPa
323.15 K | 12.23 ± 0.25 kPa
333.15 K | 19.82 ± 0.4 kPa
343.15 K | 31.09 ± 0.63 kPa and 30.82 ± 0.62 kPa
353.15 K | 47.34 ± 0.95 kPa
363.15 K | 70.22 ± 1.4 kPa

CN(C)CCO [2-(N,N-dimethylamino)ethanol]
Details | vapor or sublimation pressure
273.15 K | 0.142 ± 0.004 kPa
273.86 K | 0.149 ± 0.0036 kPa
282.97 K | 0.2938 ± 0.0067 kPa and 0.2945 ± 0.0067 kPa
283.15 K | 0.2979 ± 0.0068 kPa
292.89 K | 0.5824 ± 0.013 kPa
292.91 K | 0.5823 ± 0.013 kPa and 0.5822 ± 0.013 kPa
293.15 K | 0.59 ± 0.013 kPa
302.89 K | 1.095 ± 0.024 kPa and 1.096 ± 0.024 kPa
303.15 K | 1.11 ± 0.024 kPa
312.86 K | 1.963 ± 0.041 kPa
313.15 K | 1.993 ± 0.041 kPa
323.03 K | 3.392 ± 0.07 kPa
323.15 K | 3.435 ± 0.071 kPa
333.06 K | 5.626 ± 0.11 kPa
333.15 K | 5.705 ± 0.12 kPa
343.05 K | 9.047 ± 0.19 kPa
343.15 K | 9.165 ± 0.19 kPa
353.04 K | 14.45 ± 0.3 kPa
353.15 K | 14.29 ± 0.29 kPa
363.1 K | 21.59 ± 0.43 kPa
363.15 K | 21.66 ± 0.44 kPa

CC(C)N(C)C [N,N-dimethylisopropylamine]
Details | vapor or sublimation pressure
273.15 K | 6.65 ± 0.14 kPa
274.58 K | 7.183 ± 0.15 kPa and 7.185 ± 0.15 kPa and 7.197 ± 0.15 kPa
283.15 K | 11.11 ± 0.22 kPa
283.86 K | 11.39 ± 0.23 kPa
293.15 K | 17.77 ± 0.36 kPa
293.81 K | 18.3 ± 0.37 kPa and 18.39 ± 0.37 kPa
303.15 K | 27.37 ± 0.55 kPa
303.82 K | 28.18 ± 0.57 kPa
313.15 K | 40.76 ± 0.82 kPa
313.79 K | 41.76 ± 0.84 kPa and 41.79 ± 0.84 kPa and 41.8 ± 0.84 kPa
323.15 K | 58.9 ± 1.2 kPa
324.02 K | 60.66 ± 1.2 kPa and 60.72 ± 1.2 kPa
333.15 K | 82.89 ± 1.7 kPa
334.05 K | 85.36 ± 1.7 kPa [middle of 4 runs]

CCN1CCOCC1 [4-ethylmorpholine]
Details | vapor or sublimation pressure
283.15 K | 0.5816 ± 0.013 kPa
283.98 K | 0.6293 ± 0.014 kPa
293.15 K | 1.083 ± 0.024 kPa
293.93 K | 1.142 ± 0.025 kPa
303.15 K | 1.918 ± 0.04 kPa
303.86 K | 1.985 ± 0.041 kPa and 1.989 ± 0.041 kPa
313.15 K | 3.253 ± 0.067 kPa
323.15 K | 5.304 ± 0.11 kPa
323.78 K | 5.303 ± 0.11 kPa
333.15 K | 8.353 ± 0.17 kPa
333.91 K | 8.702 ± 0.18 kPa
343.15 K | 12.75 ± 0.26 kPa
343.88 K | 13.07 ± 0.26 kPa
353.15 K | 18.92 ± 0.38 kPa
353.9 K | 18.88 ± 0.38 kPa
363.15 K | 27.37 ± 0.56 kPa
363.86 K | 28.78 ± 0.58 kPa
